Laboratory results: publication PMC5218480 (PLoS ONE, 2017)

Tested on: MV-4-11 cells
Assay: Gene expression microarray analysis (Affymetrix PrimeView) and GSEA
Assay type: cell-based, human
Design: RFU PODN (11730768_x_at) / Fold change /veh PODN (11730768_x_at) / RFU LINC00158 (11744669_a_at) / Fold change /veh LINC00158 (11744669_a_at) / RFU DUSP10 (11751237_a_at) / Fold change /veh DUSP10 (11751237_a_at) / RFU ID3 (11757404_x_at) / Fold change /veh ID3 (11757404_x_at) / RFU PLEKHG5 (11737974_s_at) / Fold change /veh PLEKHG5 (11737974_s_at) / RFU LRRC4B (11730491_at) / Fold change /veh LRRC4B (11730491_at) / RFU GIMAP4 (11747438_a_at) / Fold change /veh GIMAP4 (11747438_a_at) / RFU KRT8 (11758183_x_at) / Fold change /veh KRT8 (11758183_x_at) / RFU CNN1 (11734310_a_at) / Fold change /veh CNN1 (11734310_a_at) / RFU VPS37D (11726825_at) / Fold change /veh VPS37D (11726825_at) / RFU C10orf10 (11716522_x_at) / Fold change /veh C10orf10 (11716522_x_at) / RFU KIR2DL2 /// KIR2DL4 /// KIR2DL5A /// KIR2DL5B /// KIR2DS1 /// KIR2DS2 /// KIR2DS3 /// KIR2DS4 /// KIR3DL3 /// KIR3DL3 /// KIR3DS1 (11738374_at) / Fold change /veh KIR2DL2 /// KIR2DL4 /// KIR2DL5A /// KIR2DL5B /// KIR2DS1 /// KIR2DS2 /// KIR2DS3 /// KIR2DS4 /// KIR3DL3 /// KIR3DL3 /// KIR3DS1 (11738374_at) / RFU C1QL1 (11718748_at) / Fold change /veh C1QL1 (11718748_at) / RFU TMPRSS4 (11747572_a_at) / Fold change /veh TMPRSS4 (11747572_a_at) / RFU HAMP (11756126_x_at) / Fold change /veh HAMP (11756126_x_at) / RFU RNFT2 (11725882_a_at) / Fold change /veh RNFT2 (11725882_a_at) / RFU NR4A2 (11747474_a_at) / Fold change /veh NR4A2 (11747474_a_at) / RFU ABCC12 (11746883_a_at) / Fold change /veh ABCC12 (11746883_a_at) / RFU TMEM136 (11760407_x_at) / Fold change /veh TMEM136 (11760407_x_at) / RFU CLDN22 /// WWC2 (11732394_at) / Fold change /veh CLDN22 /// WWC2 (11732394_at) / RFU HLA-DPB1 (11760878_x_at) / Fold change /veh HLA-DPB1 (11760878_x_at) / RFU SPINT1 (11716480_a_at) / Fold change /veh SPINT1 (11716480_a_at) / RFU GAP43 (11754022_s_at) / Fold change /veh GAP43 (11754022_s_at) / RFU A4GNT (11735810_at) / Fold change /veh A4GNT (11735810_at) / RFU PRB3 (11715151_x_at) / Fold change /veh PRB3 (11715151_x_at) / RFU TUBB4B (11761932_at) / Fold change /veh TUBB4B (11761932_at) / RFU CAPN14 (11732068_a_at) / Fold change /veh CAPN14 (11732068_a_at) / RFU TMCC2 (11721928_a_at) / Fold change /veh TMCC2 (11721928_a_at) / RFU IRGQ (11745062_a_at) / Fold change /veh IRGQ (11745062_a_at) / RFU FAM174B (11720279_a_at) / Fold change /veh FAM174B (11720279_a_at) / RFU TMPRSS4 (11748680_a_at) / Fold change /veh TMPRSS4 (11748680_a_at) / RFU FAM212B (11763350_a_at) / Fold change /veh FAM212B (11763350_a_at) / RFU PLEKHG5 (11743358_a_at) / Fold change /veh PLEKHG5 (11743358_a_at) / RFU ZSCAN30 (11745921_a_at) / Fold change /veh ZSCAN30 (11745921_a_at) / RFU CMKLR1 (11741424_a_at) / Fold change /veh CMKLR1 (11741424_a_at) / RFU LOC101060620 /// MAPK8IP1 (11723275_at) / Fold change /veh LOC101060620 /// MAPK8IP1 (11723275_at) / RFU SPTSSB (11747773_x_at) / Fold change /veh SPTSSB (11747773_x_at) / RFU PRSS12 (11739890_at) / Fold change /veh PRSS12 (11739890_at) / RFU BIN1 (11741810_x_at) / Fold change /veh BIN1 (11741810_x_at) / RFU WNT11 (11732464_a_at) / Fold change /veh WNT11 (11732464_a_at) / RFU C10orf10 (11716521_a_at) / Fold change /veh C10orf10 (11716521_a_at) / RFU C5orf56 (11738089_at) / Fold change /veh C5orf56 (11738089_at) / RFU CYB561 (11721691_x_at) / Fold change /veh CYB561 (11721691_x_at) / RFU ANKRD19P (11752326_a_at) / Fold change /veh ANKRD19P (11752326_a_at) / RFU OR2T12 /// OR2T33 /// OR2T8 (11738714_s_at) / Fold change /veh OR2T12 /// OR2T33 /// OR2T8 (11738714_s_at) / RFU VCAN (11748164_a_at) / Fold change /veh VCAN (11748164_a_at) / RFU JSRP1 (11732532_at) / Fold change /veh JSRP1 (11732532_at) / RFU KRTAP10-11 (11738290_x_at) / Fold change /veh KRTAP10-11 (11738290_x_at) / RFU MYO3A (11730013_a_at) / Fold change /veh MYO3A (11730013_a_at) / RFU EBF3 (11725865_a_at) / Fold change /veh EBF3 (11725865_a_at) / RFU CAMK2N1 (11719241_x_at) / Fold change /veh CAMK2N1 (11719241_x_at) / RFU C5orf56 (11738088_a_at) / Fold change /veh C5orf56 (11738088_a_at) / RFU OLFML3 (11715873_a_at) / Fold change /veh OLFML3 (11715873_a_at) / RFU LOC100653217 /// NTM (11731650_a_at) / Fold change /veh LOC100653217 /// NTM (11731650_a_at) / RFU MAPK11 (11762145_a_at) / Fold change /veh MAPK11 (11762145_a_at) / RFU FIZ1 (11724087_x_at) / Fold change /veh FIZ1 (11724087_x_at) / RFU OASL (11726364_x_at) / Fold change /veh OASL (11726364_x_at) / RFU SOX15 (11748057_x_at) / Fold change /veh SOX15 (11748057_x_at) / RFU CD79A (11719716_a_at) / Fold change /veh CD79A (11719716_a_at) / RFU HIST1H1D (11736915_at) / Fold change /veh HIST1H1D (11736915_at) / RFU CASKIN2 (11723855_a_at) / Fold change /veh CASKIN2 (11723855_a_at) / RFU LOC730098 (11760151_x_at) / Fold change /veh LOC730098 (11760151_x_at) / RFU OR4N2 (11742367_at) / Fold change /veh OR4N2 (11742367_at) / RFU PRRT2 (11749266_a_at) / Fold change /veh PRRT2 (11749266_a_at) / RFU SNX32 (11753110_a_at) / Fold change /veh SNX32 (11753110_a_at) / RFU CDHR5 (11726645_a_at) / Fold change /veh CDHR5 (11726645_a_at) / RFU RCAN1 (11760418_a_at) / Fold change /veh RCAN1 (11760418_a_at) / RFU FAM167A (11723789_a_at) / Fold change /veh FAM167A (11723789_a_at) / RFU FAM26E (11764081_at) / Fold change /veh FAM26E (11764081_at) / RFU ISYNA1 (11749810_s_at) / Fold change /veh ISYNA1 (11749810_s_at) / RFU ACY1 (11761880_at) / Fold change /veh ACY1 (11761880_at) / RFU 11764098_at / Fold change /veh 11764098_at / RFU SAMD14 (11745864_x_at) / Fold change /veh SAMD14 (11745864_x_at) / RFU NPB (11741838_a_at) / Fold change /veh NPB (11741838_a_at) / RFU TMPRSS6 (11731388_a_at) / Fold change /veh TMPRSS6 (11731388_a_at) / RFU KRTAP10-2 (11738614_at) / Fold change /veh KRTAP10-2 (11738614_at) / RFU ARHGAP8 /// PRR5-ARHGAP8 (11727945_x_at) / Fold change /veh ARHGAP8 /// PRR5-ARHGAP8 (11727945_x_at) / RFU KRTAP5-7 /// NADSYN1 (11734609_at) / Fold change /veh KRTAP5-7 /// NADSYN1 (11734609_at) / RFU RASL12 (11751679_a_at) / Fold change /veh RASL12 (11751679_a_at) / RFU CDKN2B (11736163_a_at) / Fold change /veh CDKN2B (11736163_a_at) / RFU PRF1 (11729649_at) / Fold change /veh PRF1 (11729649_at) / RFU, ZNF638 /// ZNF638-IT1 / Fold change vs veh, ZNF638 /// ZNF638-IT1 / RFU, PANK3 / Fold change vs veh, PANK3 / RFU, SH3YL1 / Fold change vs veh, SH3YL1 / RFU, ZEB2 / Fold change vs veh, ZEB2 / RFU, NRIP1 / Fold change vs veh, NRIP1 / RFU, PTTG1IP / Fold change vs veh, PTTG1IP / RFU, CAPN2 / Fold change vs veh, CAPN2 / RFU, MED14 / Fold change vs veh, MED14 / RFU, SNORA58 / Fold change vs veh, SNORA58 / RFU, C1orf63 / Fold change vs veh, C1orf63 / RFU, LRRFIP1 / Fold change vs veh, LRRFIP1 / RFU, NDUFAF7 / Fold change vs veh, NDUFAF7 / RFU, SLC12A2 / Fold change vs veh, SLC12A2 / RFU, IBTK / Fold change vs veh, IBTK / RFU, ESF1 / Fold change vs veh, ESF1 / Fold change vs veh, TMEM50B / RFU, TAOK1 / Fold change vs veh, TAOK1 / RFU, ACBD3 / Fold change vs veh, ACBD3 / RFU, TMA16 / Fold change vs veh, TMA16 / RFU, RWDD3 / Fold change vs veh, RWDD3 / RFU, BCAT1 / Fold change vs veh, BCAT1 / RFU, EDEM3 / Fold change vs veh, EDEM3 / RFU, TMEM33 / Fold change vs veh, TMEM33 / RFU, WDR75 / Fold change vs veh, WDR75 / RFU, AHCTF1 / Fold change vs veh, AHCTF1 / RFU, TFRC / Fold change vs veh, TFRC / RFU, ZDHHC17 / Fold change vs veh, ZDHHC17 / RFU, NOM1 / Fold change vs veh, NOM1 / RFU, ARL8B / Fold change vs veh, ARL8B / RFU, ZBTB11 / Fold change vs veh, ZBTB11 / RFU, TAMM41 / Fold change vs veh, TAMM41 / RFU, KIAA1704 /// LOC100996395 / Fold change vs veh, KIAA1704 /// LOC100996395 / RFU, ING1 / Fold change vs veh, ING1 / RFU, TRMT61B / Fold change vs veh, TRMT61B / RFU, FUBP3 / Fold change vs veh, FUBP3 / RFU, TP53 / Fold change vs veh, TP53 / RFU, TNKS2 / Fold change vs veh, TNKS2 / RFU, ZFP14 / Fold change vs veh, ZFP14 / RFU, ACTR2 / Fold change vs veh, ACTR2 / RFU, PPP3R1 / Fold change vs veh, PPP3R1 / RFU, PIK3R1 / Fold change vs veh, PIK3R1 / RFU, HNRNPA1 / Fold change vs veh, HNRNPA1 / RFU, RNF170 / Fold change vs veh, RNF170 / RFU, ZNF28 / Fold change vs veh, ZNF28 / RFU, RNGTT / Fold change vs veh, RNGTT / RFU, OGT / Fold change vs veh, OGT / RFU, BRD1 / Fold change vs veh, BRD1 / RFU, MARS / Fold change vs veh, MARS / RFU, ZNF655 / Fold change vs veh, ZNF655 / RFU, FAHD1 / Fold change vs veh, FAHD1 / RFU, BDP1 / Fold change vs veh, BDP1 / RFU, LRRCC1 / Fold change vs veh, LRRCC1 / RFU, ARID1A / Fold change vs veh, ARID1A / RFU, ZNF146 / Fold change vs veh, ZNF146 / RFU, ZNF330 / Fold change vs veh, ZNF330 / RFU, GPN3 / Fold change vs veh, GPN3 / RFU, C9orf123 / Fold change vs veh, C9orf123 / RFU, N4BP2L2 / Fold change vs veh, N4BP2L2 / RFU, ARFIP1 / Fold change vs veh, ARFIP1 / RFU, FAM179B / Fold change vs veh, FAM179B / RFU, BCL10 / Fold change vs veh, BCL10 / RFU, UHRF1BP1L / Fold change vs veh, UHRF1BP1L / RFU, BET1 / Fold change vs veh, BET1 / RFU, CNOT2 / Fold change vs veh, CNOT2 / RFU, ZNF268 / Fold change vs veh, ZNF268 / Fold change vs veh, ZNF507 / RFU, DGCR2 / Fold change vs veh, DGCR2 / RFU, WDSUB1 / Fold change vs veh, WDSUB1 / Fold change vs veh, HSP90B1 /// MIR3652 / RFU, ADSS / Fold change vs veh, ADSS / RFU, GK / Fold change vs veh, GK / RFU, ZNF148 / Fold change vs veh, ZNF148 / RFU, TAF9 / Fold change vs veh, TAF9 / RFU, SLC1A5 / Fold change vs veh, SLC1A5 / RFU, SLMO2 / Fold change vs veh, SLMO2 / RFU, ABCC4 / Fold change vs veh, ABCC4 / RFU, LOC101060439 /// RAP1B / Fold change vs veh, LOC101060439 /// RAP1B / RFU, RFX7 / Fold change vs veh, RFX7 / RFU, GTPBP10 / Fold change vs veh, GTPBP10 / RFU, CNEP1R1 / Fold change vs veh, CNEP1R1 / RFU, BIVM-ERCC5 /// ERCC5 / Fold change vs veh, BIVM-ERCC5 /// ERCC5 / RFU, ILF3 / Fold change vs veh, ILF3 / RFU 11762660_at / Fold change /veh 11762660_at / RFU VCAN (11757783_s_at) / Fold change /veh VCAN (11757783_s_at) / RFU DDX43 (11728927_at) / Fold change /veh DDX43 (11728927_at) / RFU KRT8 (11758188_x_at) / Fold change /veh KRT8 (11758188_x_at) / RFU NKD1 (11759106_at) / Fold change /veh NKD1 (11759106_at) / RFU SRD5A1 (11742802_a_at) / Fold change /veh SRD5A1 (11742802_a_at) / RFU TPSAB1 /// TPSB2 (11721975_s_at) / Fold change /veh TPSAB1 /// TPSB2 (11721975_s_at) / RFU GSTM3 (11746129_a_at) / Fold change /veh GSTM3 (11746129_a_at) / RFU IL23R (11737362_x_at) / Fold change /veh IL23R (11737362_x_at) / RFU TMEM51 (11727254_a_at) / Fold change /veh TMEM51 (11727254_a_at) / RFU PIWIL2 (11732686_x_at) / Fold change /veh PIWIL2 (11732686_x_at) / RFU ORM1 (11744905_x_at) / Fold change /veh ORM1 (11744905_x_at) / RFU CCDC152 (11743942_at) / Fold change /veh CCDC152 (11743942_at) / RFU ECM1 (11717891_a_at) / Fold change /veh ECM1 (11717891_a_at) / RFU IL23R (11748794_a_at) / Fold change /veh IL23R (11748794_a_at) / RFU TNFAIP8L3 (11732012_x_at) / Fold change /veh TNFAIP8L3 (11732012_x_at) / RFU MBOAT4 (11741988_at) / Fold change /veh MBOAT4 (11741988_at) / RFU 11764193_at / Fold change /veh 11764193_at / RFU TMEM53 (11763286_at) / Fold change /veh TMEM53 (11763286_at) / RFU MAGEB2 (11727129_at) / Fold change /veh MAGEB2 (11727129_at) / RFU TMEM200A (11744735_a_at) / Fold change /veh TMEM200A (11744735_a_at) / RFU CCDC152 (11751479_a_at) / Fold change /veh CCDC152 (11751479_a_at) / RFU FAM211A (11726209_a_at) / Fold change /veh FAM211A (11726209_a_at) / RFU RGS16 (11746705_a_at) / Fold change /veh RGS16 (11746705_a_at) / RFU VCAN (11755009_s_at) / Fold change /veh VCAN (11755009_s_at) / RFU RHOB (11743442_s_at) / Fold change /veh RHOB (11743442_s_at) / RFU RGS16 (11720943_a_at) / Fold change /veh RGS16 (11720943_a_at) / RFU RGS16 (11720944_at) / Fold change /veh RGS16 (11720944_at) / RFU, VPS4B / Fold change vs veh, VPS4B / RFU, CREB1 / Fold change vs veh, CREB1 / RFU, DNAJC13 / Fold change vs veh, DNAJC13 / RFU, GNAQ / Fold change vs veh, GNAQ / RFU, CDK5R1 / Fold change vs veh, CDK5R1 / RFU, ZRANB3 / Fold change vs veh, ZRANB3 / RFU, CUL4A / Fold change vs veh, CUL4A / RFU, CCNY / Fold change vs veh, CCNY / RFU, UFL1 / Fold change vs veh, UFL1 / RFU, COG3 / Fold change vs veh, COG3 / RFU, DIAPH2 / Fold change vs veh, DIAPH2 / RFU, SKA2 / Fold change vs veh, SKA2 / RFU, AFF3 / Fold change vs veh, AFF3 / RFU, LMF1 / Fold change vs veh, LMF1 / RFU, IPO11 / Fold change vs veh, IPO11 / RFU, DFFB / Fold change vs veh, DFFB / RFU, FOXP1 / Fold change vs veh, FOXP1 / RFU, CARD8 / Fold change vs veh, CARD8 / RFU, STRN3 / Fold change vs veh, STRN3 / RFU, ADK / Fold change vs veh, ADK / RFU, RASSF2 / Fold change vs veh, RASSF2 / RFU, WIPF1 / Fold change vs veh, WIPF1 / RFU, LARP1B / Fold change vs veh, LARP1B / RFU, RASA1 / Fold change vs veh, RASA1 / RFU, RB1 / Fold change vs veh, RB1 / RFU, PPFIA1 / Fold change vs veh, PPFIA1 / RFU, MAT2A / Fold change vs veh, MAT2A / RFU, CCT5 / Fold change vs veh, CCT5 / RFU, WDR92 / Fold change vs veh, WDR92 / RFU, CUX1 / Fold change vs veh, CUX1 / RFU, TTC7A / Fold change vs veh, TTC7A / RFU, TMEM135 / Fold change vs veh, TMEM135 / RFU, DEPTOR / Fold change vs veh, DEPTOR / RFU, CPM / Fold change vs veh, CPM / RFU, DNAJB6 / Fold change vs veh, DNAJB6 / RFU, CACNA2D3 / Fold change vs veh, CACNA2D3 / RFU, DTX4 / Fold change vs veh, DTX4 / RFU, TFCP2 / Fold change vs veh, TFCP2 / RFU, GMCL1 /// GMCL1P1 / Fold change vs veh, GMCL1 /// GMCL1P1 / RFU, AEBP2 / Fold change vs veh, AEBP2 / RFU, SNHG1 /// SNORD22 /// SNORD25 /// SNORD26 /// SNORD27 /// SNORD28 /// SNORD29 /// SNORD31 / Fold change vs veh, SNHG1 /// SNORD22 /// SNORD25 /// SNORD26 /// SNORD27 /// SNORD28 /// SNORD29 /// SNORD31 / Fold change (Aza/veh), C12orf56 (ProbeSet 11735607_a_at) / Fold change (ACY-1035/veh), C12orf56 (ProbeSet 11735607_a_at) / Fold change (Aza/veh), FGFR1OP (ProbeSet 11751329_s_at) / Fold change (ACY-1035/veh), FGFR1OP (ProbeSet 11751329_s_at) / Fold change (Aza/veh), VPS36 (ProbeSet 11739960_a_at) / Fold change (ACY-1035/veh), VPS36 (ProbeSet 11739960_a_at) / RFU SYPL1 (11715823_x_at) / Fold change /veh SYPL1 (11715823_x_at) / RFU IGFBP7 (11715501_s_at) / Fold change /veh IGFBP7 (11715501_s_at) / RFU REEP3 (11722064_at) / Fold change /veh REEP3 (11722064_at) / RFU IGLL1 (11728026_x_at) / Fold change /veh IGLL1 (11728026_x_at): dose or concentration left out as unconfirmed
Details: MV-4-11 cells, 48 hours

Nc1ncn([C@@H]2O[C@H](CO)[C@@H](O)[C@H]2O)c(=O)n1 [azacitidine]
RFU MAGEB2 (11727129_at): 14.25 RFU
